Reference: patent US20170190671A1, “BIS(ARYL)CATECHOL DERIVATIVES AS HERBICIDES” (E I DU PONT DE NEMOURS AND COMPANY, priority 2014, published 2017)

Key:
Conditions in all cases: scale 0 to 100
[1] = tested on: wild oat (Avenafatua); assay: Test D preemergence; type: in vivo, Avena fatua
Excerpt: Seeds of plant species selected from bluegrass (annual bluegrass, Poa annua), blackgrass (Alopecurus myosuroides), canarygrass (Phalaris minor), chickweed (common chickweed, Stellaria media), cutleaf geranium (Geranium dissectum), galium (catchweed bedstraw, Galium aparine), downy bromegrass (Bromus tectorum), field poppy (Papaver rhoeas), field violet (Viola arvensis), green foxtail (Setaria viridis), deadnettle (henbit deadnettle, Lamium amplexicaule), Italian ryegrass (Lolium multiflorum), kochia (Kochia scoparia), lambsquarters (Chenopodium album), oilseed rape (Brassica napus), pigweed (Amaranthus retroflexus), chamomile (scentless chamomile, Matricaria inodora), Russian thistle (Salsola kali), speedwell (bird's-eye speedwell, Veronica persica), spring barley (Hordeum vulgare), spring wheat (Triticum aestivum), wild buckwheat (Polygonum convolvulus), wild mustard (Sinapis arvensis), wild oat (Avenafatua), wild radish (Raphanus raphanistrum), windgrass (Apera spica-venti), winter barley (Hordeum vulgare), and winter wheat (Triticum aestivum) were planted into a silt loam soil and treated preemergence with test chemicals formulated in a non-phytotoxic solvent mixture which included a surfactant.
At the same time, these species were planted in pots containing Redi-Earth® planting medium (Scotts Company, 14111 Scottslawn Road, Marysville, Ohio 43041) comprising spaghnum peat moss, vermiculite, wetting agent and starter nutrients and treated with postemergence applications of the test chemicals formulated in the same manner. Plants ranged in height from 2 to 18 cm (1- to 4-leaf stage). Treated plants and controls were maintained in a controlled growth environment for 14 to 21 days after which time all species were compared to controls and visually evaluated. Plant response ratings, summarized in Table D, are based on a scale of 0 to 100 where 0 is no effect and 100 is complete control. A dash (-) response means no test result.

[2] = tested on: Italian ryegrass (Lolium multiflorum); assay: Test D postemergence; type: in vivo
Method in brief: (§1)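 Ratings of 0–100 reflect visual comparison with control plants at 14 to 21 days. For preemergence, compound was sprayed on silt loam just after sowing; for postemergence, on plants 2 to 18 cm in height.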

[3] = tested on: blackgrass (Alopecurus myosuroides); assay: Test D postemergence; type: in vivo
Method in brief: as §1

[4] = tested on: bluegrass (annual bluegrass, Poa annua); assay: Test D postemergence; type: in vivo
Method in brief: as §1

[5] = tested on: canarygrass (Phalaris minor); assay: Test D postemergence; type: in vivo
Method in brief: as §1

[6] = tested on: chickweed (common chickweed, Stellaria media); assay: Test D postemergence; type: in vivo
Method in brief: as §1

[7] = tested on: downy bromegrass (Bromus tectorum); assay: Test D postemergence; type: in vivo
Method in brief: as §1

[8] = tested on: field poppy (Papaver rhoeas); assay: Test D postemergence; type: in vivo
Method in brief: as §1

[9] = tested on: oilseed rape (Brassica napus); assay: Test D postemergence; type: in vivo
Method in brief: as §1

[10] = tested on: pigweed (Amaranthus retroflexus); assay: Test D postemergence; type: in vivo
Method in brief: as §1

[11] = tested on: wild buckwheat (Polygonum convolvulus); assay: Test D postemergence; type: in vivo
Method in brief: as §1

[12] = tested on: windgrass (Apera spica-venti); assay: Test D postemergence; type: in vivo
Method in brief: as §1

SMILES: Fc1cnc(Oc2c(F)cccc2Oc2ncc(Cl)cn2)nc1 [Compound 23]
- Plant response rating, Oat, Wild ([1]; 16 g ai/ha): 5
- Plant response rating, Oat, Wild ([1]; 31 g ai/ha): 15
- Plant response rating, Oat, Wild ([1]; 62 g ai/ha): 70
- Plant response rating, Oat, Wild ([1]; 125 g ai/ha): 98
- Plant response rating, Ryegrass, Italian ([2]; 16 g ai/ha): 0
- Plant response rating, Ryegrass, Italian ([2]; 31 g ai/ha): 5
- Plant response rating, Ryegrass, Italian ([2]; 62 g ai/ha): 10
- Plant response rating, Ryegrass, Italian ([2]; 125 g ai/ha): 25
- Plant response rating, Blackgrass ([3]; 16 g ai/ha): 10
- Plant response rating, Blackgrass ([3]; 31 g ai/ha): 20
- Plant response rating, Blackgrass ([3]; 62 g ai/ha): 35
- Plant response rating, Blackgrass ([3]; 125 g ai/ha): 55
- Plant response rating, Bluegrass ([4]; 16 g ai/ha): 5
- Plant response rating, Bluegrass ([4]; 31 g ai/ha): 10
- Plant response rating, Bluegrass ([4]; 62 g ai/ha): 15
- Plant response rating, Bluegrass ([4]; 125 g ai/ha): 35
- Plant response rating, Canarygrass ([5]; 16 g ai/ha): 10
- Plant response rating, Canarygrass ([5]; 31 g ai/ha): 20
- Plant response rating, Canarygrass ([5]; 62 g ai/ha): 25
- Plant response rating, Canarygrass ([5]; 125 g ai/ha): 55
- Plant response rating, Chickweed ([6]; 16 g ai/ha): 60
- Plant response rating, Chickweed ([6]; 31 g ai/ha): 70
- Plant response rating, Chickweed ([6]; 62 g ai/ha): 70
- Plant response rating, Chickweed ([6]; 125 g ai/ha): 80
- Plant response rating, Bromegrass, Downy ([7]; 16 g ai/ha): 5
- Plant response rating, Bromegrass, Downy ([7]; 31 g ai/ha): 10
- Plant response rating, Bromegrass, Downy ([7]; 62 g ai/ha): 20
- Plant response rating, Bromegrass, Downy ([7]; 125 g ai/ha): 25
- Plant response rating, Field Poppy ([8]; 16 g ai/ha): 50
- Plant response rating, Field Poppy ([8]; 31 g ai/ha): 70
- Plant response rating, Field Poppy ([8]; 62 g ai/ha): 75
- Plant response rating, Field Poppy ([8]; 125 g ai/ha): 80
- Plant response rating, Oilseed Rape ([9]; 16 g ai/ha): 30
- Plant response rating, Oilseed Rape ([9]; 31 g ai/ha): 65
- Plant response rating, Oilseed Rape ([9]; 62 g ai/ha): 75
- Plant response rating, Oilseed Rape ([9]; 125 g ai/ha): 95
- Plant response rating, Pigweed ([10]; 16 g ai/ha): 55
- Plant response rating, Pigweed ([10]; 31 g ai/ha): 60
- Plant response rating, Pigweed ([10]; 62 g ai/ha): 70
- Plant response rating, Pigweed ([10]; 125 g ai/ha): 90
- Plant response rating, Buckwheat, Wild ([11]; 16 g ai/ha): 50
- Plant response rating, Buckwheat, Wild ([11]; 31 g ai/ha): 70
- Plant response rating, Buckwheat, Wild ([11]; 62 g ai/ha): 75
- Plant response rating, Buckwheat, Wild ([11]; 125 g ai/ha): 75
- Plant response rating, Windgrass ([12]; 16 g ai/ha): 10
- Plant response rating, Windgrass ([12]; 31 g ai/ha): 10
- Plant response rating, Windgrass ([12]; 62 g ai/ha): 15
- Plant response rating, Windgrass ([12]; 125 g ai/ha): 20
